Melting point data for 1 molecule are collected here from US8664217B2, “Benzodiazepine compound and pharmaceutical composition” (Otsuka Pharmaceutical Co., Ltd., priority 2008, dated 2014).

On to `CCN1C(=O)C(C)(C)C(=O)N(C)c2cc(OCCCN(CCc3cccnc3)C(=O)c3ccncc3)ccc21` [Example 459, N-[3-(1-ethyl-3,3,5-trimethyl-2,4-dioxo-2,3,4,5-tetrahydro-1H-benzo[b][1,4]diazepin-7-yloxy)propyl]-N-(2-pyridin-3-ylethyl)isonicotinamide], for which the melting point – broadly, the temperature, or range, at which the solid turns liquid – was 88.1 to 92.2 °C.
